Experimental data reported in patent US12257224B2, “Methods of administration for highly water-soluble salts of a short acting phenylalkylamine calcium channel blocker” (Milestone Pharmaceuticals Inc., priority 2021, dated 2025).

How the values were obtained:
induced PSVT = assay: Phase 2 study: termination of induced PSVT; type: in vivo, human; details: for mean reduction in systolic blood pressure (SBP) versus baseline: between 4 and 10 minutes after administration
Method: In a Phase 2 study, four doses (35, 70, 105, and 140 mg) were tested.

[1] = Permeation of compound I through the nasal epithelium with EDTA in the formulation
Description: The nasal vestibule, which accounts for approximately 3-4% of the surface area of the nasal cavity, lacks tight junctions altogether and is thus not affected by calcium chelating agents. […] As such, it has been postulated that the nasal epithelium is not susceptible to permeability modulation by EDTA (Aungst, et al., Pharma. Res., 1998, 5:305-308). Additionally, the ability of EDTA to increase permeation of a compound through the nasal epithelium is attenuated as the molecular weight of the compound increases (Nakanishi, et al., Chem. Pharm. Bull., 1984, 32:1628-1632).

PSVT = assay: Example 2: Phase 3 study of self-administered 70 mg dose for PSVT in an at-home setting; type: in vivo, human
Method: A multi-center, randomized, double-blind, placebo-controlled study to evaluate the efficacy and safety of a 70 mg self-administered dose of compound I in an at-home setting was conducted. […] PSVT episodes were documented by an ambulatory Cardiac Monitoring System (CMS) placed on the chest by the patient or caregiver when symptoms began and were recorded at least 5 hours of continuous electrocardiogram (ECG).
The primary efficacy endpoint was defined as an adjudicated termination of a positively adjudicated episode of PSVT and conversion to sinus rhythm for at least 30 seconds. The primary efficacy endpoint was evaluated using the time to conversion of an episode of PSVT to sinus rhythm after study drug administration as the primary efficacy variable. The study included a screening visit, a test dose randomization visit, follow-up visits, a treatment period, and a final study visit. Before randomization, all patients received a 70 mg test dose of compound I to evaluate tolerability. The test dose administration took place at the study site under medical supervision while the patient was in sinus rhythm (SR). Patients who passed the test dose were randomized in a 2:1 ratio to 70 mg compound I or placebo. During the treatment period, all randomized patients performed a sequence of steps upon self-identifying symptoms of an episode of PSVT, including contacting a telephone coach for assistance on study procedures, applying a CMS on their chest, performing a vagal maneuver (VM), and study drug self-administration.
For administration, the patients placed the applicator of the system into their nose. The subject's held the nasal delivery system between the second and third fingers, with the thumb placed on the actuator. […] The subjects then apply pressure to the actuator, which forces the liquid solution containing the dissolved acetate salt of compound I through the device, causing the solution to be released from the tip of the applicator as a spray. The solution was administered to the patients as two single pump spray dosages in order to deliver 70 mg of compound I to the nasal epithelium.
The presence of an episode of PSVT and termination were evaluated by an independent Adjudication Committee. The Adjudication Committee's evaluations were done using the complete CMS ECG recorded during the patient's PSVT episode.

[2] = Formation of concentrated aqueous acid addition salt solutions of compound I; type: physicochemical; details: free base treated with methanesulfonic acid or acetic acid
[3] = Phase 1 study (doses up to 140 mg; PR interval, MFD, TEAEs); type: in vivo, human

Compound: COC(=O)c1cccc(CCN(C)CCCC(C#N)(c2ccc(OC)c(OC)c2)C(C)C)c1 (stereo not drawn) [compound I, methyl 3-(2-((4-cyano-4-(3,4-dimethoxyphenyl)-5-methylhexyl)(methyl)amino)ethyl)benzoate]
- overall success rate (induced PSVT; 35 mg, at 15 minutes): 65%
- treatment effect compared to placebo (induced PSVT; 35 mg, at 15 minutes): 30%
- mean reduction in systolic blood pressure (SBP) versus baseline (induced PSVT; 105 mg): 11.4%
- mean reduction in systolic blood pressure (SBP) versus baseline (induced PSVT; 140 mg): 15.6%
- termination of induced PSVT within 15 minutes of dosing (induced PSVT; 70, 105 and 140 mg vs placebo): statistically significantly superior compared with placebo
- time to conversion of PSVT to sinus rhythm (SR) (induced PSVT; 70, 105 and 140 mg vs placebo): shorter
- tolerability (induced PSVT; NS 70 mg): well tolerated
- mean SBP (induced PSVT; doses of 35 and 70 mg): did not drop
- permeation through the nasal epithelium [1]: increased the permeation of compound I through the nasal epithelium
- incidences of severe adverse events or adverse events of interest vs placebo (PSVT; 70 mg): no significant differences
- median time to conversion (PSVT; 70 mg): 25 min
- most common adverse events (PSVT; 70 mg): local to the nose, including nasal irritation and congestion
- patients converted to SR within 30 minutes after study drug administration (PSVT; 70 mg): 54%
- patient reported treatment satisfaction (TSQM-9) (PSVT; 70 mg vs placebo, secondary endpoint): nominal statistically significant improvements in favor of compound I over placebo
- hazard ratio HR (95% CI), time to conversion of PSVT to SR vs placebo (PSVT; 70 mg, 5-hour observation period): 1.086 (0.726, 1.623)
- safety and tolerability (PSVT; 70 mg, over 5 hours following treatment, more than 100 patients in PSVT): safe and well tolerated
- absolute difference in conversion rate vs placebo by 30 minutes (PSVT; 70 mg, post hoc analysis): ~19%
- salt solution concentration attainable [2]: concentrations sufficient for nasal administration
- PR interval of the ECG ([3]; 4 highest doses tested: 30, 60, 105 and 140 mg): produced an increase in the PR interval of the ECG
- Treatment Emergent Adverse Effects (TEAEs) ([3]; doses higher than 70 mg): an increase in Treatment Emergent Adverse Effects (TEAEs), mainly related to nasal irritation
- drug exposure and PR interval ([3]; two 30 mg doses 10 minutes apart vs single 30 mg dose): drug exposure and PR interval increased and remained elevated for a longer period
